Laboratory results published in ChEMBL document CHEMBL4004849, “Tetrazolylmethyl quinolines: Design, docking studies, synthesis, anticancer and antifungal analyses” (2017).
In brackets after ≈: the same amount, converted by molar mass. Activity calls are given as the source filed them. The rule behind the calls is not given here.

Key:
Type in all cases: functional
HL-60(TB) = test: Growth inhibition of human HL-60(TB) cells at 10^-5 M incubated for 48 hrs by sulforhodamine B assay relative to control
MOLT-4 = test: Growth inhibition of human MOLT4 cells at 10^-5 M incubated for 48 hrs by sulforhodamine B assay relative to control
A549 = test: Growth inhibition of human A549/ATCC cells at 10^-5 M incubated for 48 hrs by sulforhodamine B assay relative to control
EKVX = test: Growth inhibition of human EKVX cells at 10^-5 M incubated for 48 hrs by sulforhodamine B assay relative to control
NCI-H23 = test: Growth inhibition of human NCI-H23 cells at 10^-5 M incubated for 48 hrs by sulforhodamine B assay relative to control
NCI-H460 = test: Growth inhibition of human NCI-H460 cells at 10^-5 M incubated for 48 hrs by sulforhodamine B assay relative to control
NCI-H522 = test: Growth inhibition of human NCI-H522 cells at 10^-5 M incubated for 48 hrs by sulforhodamine B assay relative to control
COLO 205 = test: Growth inhibition of human COLO205 cells at 10^-5 M incubated for 48 hrs by sulforhodamine B assay relative to control
HCC 2998 = test: Growth inhibition of human HCC2998 cells at 10^-5 M incubated for 48 hrs by sulforhodamine B assay relative to control
HCT-116 = test: Growth inhibition of human HCT116 cells at 10^-5 M incubated for 48 hrs by sulforhodamine B assay relative to control
HCT-15 = test: Growth inhibition of human HCT15 cells at 10^-5 M incubated for 48 hrs by sulforhodamine B assay relative to control
KM12 = test: Growth inhibition of human KM12 cells at 10^-5 M incubated for 48 hrs by sulforhodamine B assay relative to control
SW-620 = test: Growth inhibition of human SW620 cells at 10^-5 M incubated for 48 hrs by sulforhodamine B assay relative to control
SF-295 = test: Growth inhibition of human SF295 cells at 10^-5 M incubated for 48 hrs by sulforhodamine B assay relative to control
SF-539 = test: Growth inhibition of human SF539 cells at 10^-5 M incubated for 48 hrs by sulforhodamine B assay relative to control
SNB-19 = test: Growth inhibition of human SNB19 cells at 10^-5 M incubated for 48 hrs by sulforhodamine B assay relative to control
SNB-75 = test: Growth inhibition of human SNB75 cells at 10^-5 M incubated for 48 hrs by sulforhodamine B assay relative to control
U-251 = test: Growth inhibition of human U251 cells at 10^-5 M incubated for 48 hrs by sulforhodamine B assay relative to control
LOX IMVI = test: Growth inhibition of human LOXIMVI cells at 10^-5 M incubated for 48 hrs by sulforhodamine B assay relative to control
M14 = test: Growth inhibition of human M14 cells at 10^-5 M incubated for 48 hrs by sulforhodamine B assay relative to control
SK-MEL-2 = test: Growth inhibition of human SK-MEL-2 cells at 10^-5 M incubated for 48 hrs by sulforhodamine B assay relative to control
SK-MEL-28 = test: Growth inhibition of human SK-MEL-28 cells at 10^-5 M incubated for 48 hrs by sulforhodamine B assay relative to control
SK-MEL-5 = test: Growth inhibition of human SK-MEL-5 cells at 10^-5 M incubated for 48 hrs by sulforhodamine B assay relative to control
UACC-257 = test: Growth inhibition of human UACC257 cells at 10^-5 M incubated for 48 hrs by sulforhodamine B assay relative to control
UACC-62 = test: Growth inhibition of human UACC62 cells at 10^-5 M incubated for 48 hrs by sulforhodamine B assay relative to control
IGROV-1 = test: Growth inhibition of human IGROV1 cells at 10^-5 M incubated for 48 hrs by sulforhodamine B assay relative to control
OVCAR-4 = test: Growth inhibition of human OVCAR4 cells at 10^-5 M incubated for 48 hrs by sulforhodamine B assay relative to control
OVCAR-5 = test: Growth inhibition of human OVCAR5 cells at 10^-5 M incubated for 48 hrs by sulforhodamine B assay relative to control
OVCAR-8 = test: Growth inhibition of human OVCAR8 cells at 10^-5 M incubated for 48 hrs by sulforhodamine B assay relative to control
NCI/ADR-RES = test: Growth inhibition of human NCI-ADR-RES cells at 10^-5 M incubated for 48 hrs by sulforhodamine B assay relative to control
786-0 = test: Growth inhibition of human 786-0 cells at 10^-5 M incubated for 48 hrs by sulforhodamine B assay relative to control
ACHN = test: Growth inhibition of human ACHN cells at 10^-5 M incubated for 48 hrs by sulforhodamine B assay relative to control
RXF 393 = test: Growth inhibition of human RXF393 cells at 10^-5 M incubated for 48 hrs by sulforhodamine B assay relative to control
TK-10 = test: Growth inhibition of human TK10 cells at 10^-5 M incubated for 48 hrs by sulforhodamine B assay relative to control
UO-31 = test: Growth inhibition of human UO31 cells at 10^-5 M incubated for 48 hrs by sulforhodamine B assay relative to control
MCF7 = test: Growth inhibition of human MCF7 cells at 10^-5 M incubated for 48 hrs by sulforhodamine B assay relative to control
MDA-MB-231 = test: Growth inhibition of human MDA-MB-231/ATCC cells at 10^-5 M incubated for 48 hrs by sulforhodamine B assay relative to control
Hs-578T = test: Growth inhibition of human Hs 578T cells at 10^-5 M incubated for 48 hrs by sulforhodamine B assay relative to control
BT-549 = test: Growth inhibition of human BT549 cells at 10^-5 M incubated for 48 hrs by sulforhodamine B assay relative to control
T47D = test: Growth inhibition of human T47D cells at 10^-5 M incubated for 48 hrs by sulforhodamine B assay relative to control
MDA-MB-468 = test: Growth inhibition of human MDA-MB-468 cells at 10^-5 M incubated for 48 hrs by sulforhodamine B assay relative to control
Candida albicans [1] = test: Antifungal activity against Candida albicans at 100 ug/ml by disc diffusion method; settings: read-out: IZ
Candida albicans [2] = test: Antifungal activity against Candida albicans after 24 hrs by serial dilution method
Aspergillus fumigatus = test: Antifungal activity against Aspergillus fumigatus after 24 hrs by serial dilution method

In the case of `Clc1nc2ccc(Br)cc2cc1Cn1nnc(Cc2ccccc2)n1`, the “growth inhibition (GI)” value (HL-60(TB)) is reported as “Active”, the “growth inhibition (GI)” value (MOLT-4) is reported as “Active” and the “growth inhibition (GI)” value (A549) is reported as “Active”. The “growth inhibition (GI)” value (EKVX) was “Active”, the “growth inhibition (GI)” value (NCI-H23) was “Active” and the “growth inhibition (GI)” value (NCI-H460) was “Active”. The “growth inhibition (GI)” value (NCI-H522) was “Active”, the “growth inhibition (GI)” value (COLO 205) was “Active” and the “growth inhibition (GI)” value (HCC 2998) was “Active”. For the same molecule, the “growth inhibition (GI)” value (HCT-116) was “Active”, the “growth inhibition (GI)” value (HCT-15) was “Active” and the “growth inhibition (GI)” value (KM12) was “Active”. The “growth inhibition (GI)” value (SW-620) was “Active”, the “growth inhibition (GI)” value (SF-295) was “Active” and the “growth inhibition (GI)” value (SF-539) was “Active”. The “growth inhibition (GI)” value (SNB-19) was “Active”, the “growth inhibition (GI)” value (SNB-75) was “Active” and the “growth inhibition (GI)” value (U-251) was “Active”. For the same molecule, the “growth inhibition (GI)” value (LOX IMVI) was “Active”, the “growth inhibition (GI)” value (M14) was “Active” and the “growth inhibition (GI)” value (SK-MEL-2) was “Active”. For the same molecule, the “growth inhibition (GI)” value (SK-MEL-28) was “Active”, the “growth inhibition (GI)” value (SK-MEL-5) was “Active” and the “growth inhibition (GI)” value (UACC-257) was “Active”. The “growth inhibition (GI)” value (UACC-62) was “Active”, the “growth inhibition (GI)” value (IGROV-1) was “Active” and the “growth inhibition (GI)” value (OVCAR-4) was “Active”. For the same molecule, the “growth inhibition (GI)” value (OVCAR-5) was “Active”, the “growth inhibition (GI)” value (OVCAR-8) was “Active” and the “growth inhibition (GI)” value (NCI/ADR-RES) was “Active”. For the same molecule, the “growth inhibition (GI)” value (786-0) was “Active”, the “growth inhibition (GI)” value (ACHN) was “Active” and the “growth inhibition (GI)” value (RXF 393) was “Active”. The “growth inhibition (GI)” value (TK-10) was “Active”, the “growth inhibition (GI)” value (UO-31) was “Active” and the “growth inhibition (GI)” value (MCF7) was “Active”. The “growth inhibition (GI)” value (MDA-MB-231) was “Active”, the “growth inhibition (GI)” value (Hs-578T) was “Active” and the “growth inhibition (GI)” value (BT-549) was “Active”. For the same molecule, the “growth inhibition (GI)” value (T47D) was “Active”, the “growth inhibition (GI)” value (MDA-MB-468) was “Active” and the zone of inhibition at 100 µg/mL (Candida albicans [1]) was 10 mm. It also gave an MIC (Candida albicans [2]) of 10 µg/mL (≈ 24.1 µM) and an MIC (Aspergillus fumigatus) of 10 µg/mL (≈ 24.1 µM).
With `COc1ccc2nc(Cl)c(Cn3nnnc3CSc3ccccc3)cc2c1` the “growth inhibition (GI)” value (HL-60(TB)) was “Active”, the “growth inhibition (GI)” value (MOLT-4) was “Active” and the “growth inhibition (GI)” value (A549) was “Active”. For the same molecule, the “growth inhibition (GI)” value (EKVX) was “Active”, the “growth inhibition (GI)” value (NCI-H23) was “Active” and the “growth inhibition (GI)” value (NCI-H460) was “Active”. The “growth inhibition (GI)” value (NCI-H522) was “Active”, the “growth inhibition (GI)” value (COLO 205) was “Active” and the “growth inhibition (GI)” value (HCC 2998) was “Active”. The “growth inhibition (GI)” value (HCT-116) was “Active”, the “growth inhibition (GI)” value (HCT-15) was “Active” and the “growth inhibition (GI)” value (KM12) was “Active”. The “growth inhibition (GI)” value (SW-620) was “Active”, the “growth inhibition (GI)” value (SF-295) was “Active” and the “growth inhibition (GI)” value (SF-539) was “Active”. For the same molecule, the “growth inhibition (GI)” value (SNB-19) was “Active”, the “growth inhibition (GI)” value (SNB-75) was “Active” and the “growth inhibition (GI)” value (U-251) was “Active”. The “growth inhibition (GI)” value (LOX IMVI) was “Active”, the “growth inhibition (GI)” value (M14) was “Active” and the “growth inhibition (GI)” value (SK-MEL-2) was “Active”. The “growth inhibition (GI)” value (SK-MEL-28) was “Active”, the “growth inhibition (GI)” value (SK-MEL-5) was “Active” and the “growth inhibition (GI)” value (UACC-257) was “Active”. The “growth inhibition (GI)” value (UACC-62) was “Active”, the “growth inhibition (GI)” value (IGROV-1) was “Active” and the “growth inhibition (GI)” value (OVCAR-4) was “Active”. For the same molecule, the “growth inhibition (GI)” value (OVCAR-5) was “Active”, the “growth inhibition (GI)” value (OVCAR-8) was “Active” and the “growth inhibition (GI)” value (NCI/ADR-RES) was “Active”. For the same molecule, the “growth inhibition (GI)” value (786-0) was “Active”, the “growth inhibition (GI)” value (ACHN) was “Active” and the “growth inhibition (GI)” value (RXF 393) was “Active”. For the same molecule, the “growth inhibition (GI)” value (TK-10) was “Active”, the “growth inhibition (GI)” value (UO-31) was “Active” and the “growth inhibition (GI)” value (MCF7) was “Active”. The “growth inhibition (GI)” value (MDA-MB-231) was “Active”, the “growth inhibition (GI)” value (Hs-578T) was “Active” and the “growth inhibition (GI)” value (BT-549) was “Active”. For the same molecule, the “growth inhibition (GI)” value (T47D) was “Active”, the “growth inhibition (GI)” value (MDA-MB-468) was “Active” and the zone of inhibition at 100 µg/mL (Candida albicans [1]) was 18 mm. The MIC (Candida albicans [2]) was 25 µg/mL (≈ 62.8 µM) and the MIC (Aspergillus fumigatus) was 10 µg/mL (≈ 25.1 µM).
